The experiment deals with hCB1R (Homo sapiens, UniProt P21554). In words: Binding to the CB1 receptor ([3H]-SR141716A displacement). The protocol:
Binding to the CB1 Receptor:
Test compounds: The compounds (3 μl, 10 mM, 100% DMSO), pipetted into 96-well PP microtiter plates, were diluted with 27 μl of 100% DMSO (dimethyl sulfoxide). Proceeding from this solution, further 3-fold dilution steps were undertaken by transferring 10 μl in each case to a new PP microtiter plate and adding a further 20 μl of 100% DMSO. In each case 6 μl of these solutions were transferred into new 96-well PP microtiter plates and made up with 144 μl of assay buffer. The end concentrations ranged from 10 μM to 0.005 μM. Negative control: AM 251, dissolved in assay buffer with 1% DMSO, was added to the dilution series in the microtiter plates as a control. The end concentration was 1 μM. Blank control: assay buffer with 1% DMSO was added to the dilution series of the microtiter plates as a blank control.
Summary of the Assay Parameters:
High control: ^3H binding without addition of the compound
Low control: ^3H binding in the presence of 1 μM AM 251
The values were calculated using the corrected raw data.
The values reported were obtained as average values of a double determination. The IC50 values were calculated from the measurements with the program Xlfit, formula 205. Ki values were obtained from the IC50 and Kd values utilizing the Cheng-Prusoff equation: […]
Literature: Cheng, Y.-C., and Prusoff, W. H. (1973) Biochem. Pharmacol 22, 3099-3108

Where [1] appears, read: CHO-K1/cannabinoid CB1 protein 2 μg/well, [3H]-SR141716A 0.5 nM, Ki from IC50 by Cheng-Prusoff, average of double determination, read-out: hCB1R, binding Ki.

Like-named read-outs stand apart in the source and are kept apart here.

Chain of hCB1R (P21554 whole entry): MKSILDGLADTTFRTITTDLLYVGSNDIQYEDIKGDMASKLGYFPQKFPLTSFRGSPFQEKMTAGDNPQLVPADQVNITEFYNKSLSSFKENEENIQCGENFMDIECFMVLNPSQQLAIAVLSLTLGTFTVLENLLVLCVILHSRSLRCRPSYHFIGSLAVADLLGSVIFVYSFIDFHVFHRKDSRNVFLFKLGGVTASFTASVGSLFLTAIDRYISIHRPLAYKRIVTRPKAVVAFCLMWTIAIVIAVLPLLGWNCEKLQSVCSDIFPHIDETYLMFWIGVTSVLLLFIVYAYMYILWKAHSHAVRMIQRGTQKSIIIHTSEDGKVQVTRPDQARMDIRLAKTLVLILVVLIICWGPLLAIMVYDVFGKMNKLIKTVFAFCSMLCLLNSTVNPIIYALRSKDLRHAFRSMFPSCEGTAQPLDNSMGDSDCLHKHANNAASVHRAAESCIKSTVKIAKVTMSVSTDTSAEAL

The molecule `CC1(C)C(=O)N(c2ccc(C#N)c(C(F)(F)F)c2)C(=O)N1Cc1ccccc1Nc1ccc(S(C)(=O)=O)cc1` [Example 27, 4-{3-[2-(4-methylsulfonylphenylamino)benzyl]-4,4-dimethyl-2,5-dioxoimidazolidin-1-yl}-2-trifluoromethylbenzonitrile] registered a Ki of 17 nM.
Still for that read-out and setting: with `N#Cc1ccc(N2C(=O)N(Cc3ccccc3Nc3ccccc3)C3(CCCCC3)C2=O)cc1C(F)(F)F` [Example 28, 4-[2,4-Dioxo-1-(2-phenylaminobenzyl)-1,3-diazaspiro[4.5]dec-3-yl]-2-trifluoromethylbenzonitrile] the figure was 87 nM.
As to `CC1(C)C(=O)N(c2ccc(C#N)c(C(F)(F)F)c2)C(=O)N1Cc1cccc(Nc2ccccc2)c1` [Example 29, 4-[4,4-Dimethyl-2,5-dioxo-3-(3-phenylaminobenzyl)imidazolidin-1-yl]-2-trifluoromethylbenzonitrile], the Ki under setting [1] was 107 nM.
For `CC1(C)C(=O)N(c2ccc(C#N)c(C(F)(F)F)c2)C(=O)N1Cc1ccccc1Nc1ccc2c(c1)OC(F)(F)O2` [Example 32, 4-{3-[2-(2,2-difluorobenzo[1,3]dioxol-5-ylamino)benzyl]-4,4-dimethyl-2,5-dioxoimidazolidin-1-yl}-2-trifluoromethylbenzonitrile], the Ki came out at 3 nM.
Same read-out and setting: with `CC1(C)C(=O)N(c2ccc(C#N)c(C(F)(F)F)c2)C(=O)N1Cc1ccccc1Nc1cccc(C(F)(F)F)c1` [Example 34, 4-{3-[2-(3-trifluoromethylphenylamino)benzyl]-4,4-dimethyl-2,5-dioxoimidazolidin-1-yl}-2-trifluoromethylbenzonitrile] the figure was 14 nM.
Turning to `CC1(C)C(=O)N(c2ccc(Oc3ccc(Cl)cc3)c(C(F)(F)F)c2)C(=O)N1Cc1ccccc1Nc1ccc(F)cc1F` [Example 50, 3-[4-(4-Chlorophenoxy)-3-trifluoromethylphenyl]-1-[2-(2,4-difluorophenylamino)benzyl]-5,5-dimethylimidazolidine-2,4-dione], the Ki under setting [1] is 11 nM.
The molecule `CC1(C)C(=O)N(c2ccc(C#N)c(S(F)(F)(F)(F)F)c2)C(=O)N1Cc1ccccc1Nc1ccc(F)cc1F` [Example 51, 4-{3-[2-(2,4-Difluorophenylamino)benzyl]-4,4-dimethyl-2,5-dioxoimidazolidin-1-yl}-2-pentafluorosulfanylbenzonitrile] gave a Ki of 2 nM.
In turn, `CC1(C)C(=O)N(c2ccc(F)c(C(F)(F)F)c2)C(=O)N1Cc1ccccc1Nc1ccc(F)cc1F` [Example 52, 1-[2-(2,4-difluorophenylamino)benzyl]-3-(4-fluoro-3-trifluoromethylphenyl)-5,5-dimethylimidazolidine-2,4-dione] showed a Ki of 3 nM.
Molecule `CC1(C)C(=O)N(c2ccc(C#N)c(C(F)(F)F)c2)C(=O)N1Cc1ccccc1Nc1ccc(F)cc1C#N` [Example 53, 4-{3-[2-(2-cyano-4-fluorophenylamino)benzyl]-4,4-dimethyl-2,5-dioxoimidazolidin-1-yl}-2-trifluoromethylbenzonitrile] returned a Ki of 2 nM.
On to `CC1(C)C(=O)N(c2ccc(C#N)c(C(F)(F)F)c2)C(=O)N1Cc1ccccc1Nc1ccncc1` [Example 61, 4-{4,4-Dimethyl-2,5-dioxo-3-[2-(pyridin-4-ylamino)benzyl]imidazolidin-1-yl}-2-trifluoromethylbenzonitrile], for which the Ki came out at 19 nM.
The same measure, in the same setting: with `CC1(C)C(=O)N(c2ccc(C#N)c(C(F)(F)F)c2)C(=O)N1Cc1ccccc1Nc1ccc(C(=O)O)cc1` [Example 62] the figure was 16 nM.
Same read-out and setting: with `CC(C)(C)c1cc(N2C(=O)N(Cc3ccccc3Nc3ccccc3)C(C)(C)C2=O)ccc1C#N` [Example 63, 2-tert-Butyl-4-[4,4-dimethyl-2,5-dioxo-3-(2-phenylaminobenzyl)imidazolidin-1-yl]benzonitrile] the figure was 9 nM.
For the molecule `CC1(C)C(=O)N(c2ccc(C#N)nc2)C(=O)N1Cc1ccccc1Nc1ccccc1` [Example 69], under setting [1], the Ki amounted to 113 nM.
